Reference: patent US6752929B1, “Methods of separating FTC isomers and derivatives thereof” (Johnson Matthey Pharmaceutical Materials, Inc., priority 1999, dated 2004)

Test: Solubility of cis-FTC Ester in various solvent systems
Assay type: physicochemical
Details: 100% ethyl acetate, 20° C.
Procedure: Therefore, the solubility of the FTC ester in several solvent systems was determined.

Solubility: 3.03%??
Structure (SMILES): CCCC(=O)OC[C@@H]1O[C@H](n2cc(F)c(N)nc2=O)CS1 (relative stereo) [cis-FTC Ester, cis-{5-(4-amino-5-fluoro-2-oxo-1(2H)-pyrimidinyl)-1,3-oxathiolan-2-yl}methyl butanoate]
